Experiment in all cases: β1,3-N-acetylglucosaminyltransferase activity of purified FLAG peptide-fused G6 polypeptide, 2-aminobenzamide-labeled oligosaccharide substrates
Format in all cases: biochemical

Assay [1] has as its target T1, G6sec1 (Homo sapiens, UniProt Q9BYG0).
T1 construct: made in house; host or cells: Sf21 insect cells infected with pVL1393-F2G6sec1-derived recombinant baculovirus
T1 sequence (Q9BYG0 36-378): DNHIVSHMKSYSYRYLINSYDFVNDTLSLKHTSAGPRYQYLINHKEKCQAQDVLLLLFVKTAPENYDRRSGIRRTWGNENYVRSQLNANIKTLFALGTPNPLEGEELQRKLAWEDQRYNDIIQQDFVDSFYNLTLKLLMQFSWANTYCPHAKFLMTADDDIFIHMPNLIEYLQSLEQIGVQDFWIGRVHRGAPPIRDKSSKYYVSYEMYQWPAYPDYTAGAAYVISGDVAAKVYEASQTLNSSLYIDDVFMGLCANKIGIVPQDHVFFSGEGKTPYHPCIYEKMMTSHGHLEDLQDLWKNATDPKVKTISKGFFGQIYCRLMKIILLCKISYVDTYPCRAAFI
The following applies: for Relative activity (%) Test 1 G6sec1: 2-aminobenzamide-labeled oligosaccharides, LNnT defined as 100%. The method, then: (§1) β1,3-N-Acetylglucosaminyltransferase activity of the FLAG peptide-fused G6 polypeptide secreted and produced in insect cells was measured by using the eluate prepared in Example 8(6). The method of Example 7 was used for the activity measurement.
(§2) As substrates, oligosaccharides [LNnT, Galβ1-4GlcNAcβ1-3Galβ1-4GlcNAc (hereinafter referred to as “2LN”), Galβ1-4GlcNAcβ1-3Galβ1-4GlcNAcβ1-3Galβ1-4GlcNAc (hereinafter referred to as “3LN”), Galβ1-4GlcNAcβ1-3Galβ1-4GlcNAcβ1-3Galβ1-4GlcNAcβ1-3Galβ1-4GlcNAc (hereinafter referred to as “4LN”), Galβ1-4GlcNAcβ1-3Galβ1-4GlcNAcβ-3Galβ1-4GlcNAcβ1-3Galβ1-4GlcNAcβ1-3Galβ1-4GlcNAc (hereinafter referred to as “5LN”), or Galβ1-4(SO3-6)GlcNAcβ1-3Galβ1-4(SO3-6)GlcNAc (hereinafter referred to as “L2L2”)] were labeled with 2-aminobenzamide and used. 2-Aminobenzamide-labeling of oligosaccharides was carried out using SIGMA 2AB glycan labeling kit (manufactured by Oxford Glycoscience) according to the manufacture's instructions of the kit. LNnT was purchased from Oxford Glycosystems. Other oligosaccharides were obtained from Seikagaku Corporation.
Specifically, the reaction was carried out at 37° C. for 16 hours in 20 μl of an assay solution [150 mmol/l sodium cacodylate (pH 7.2), 50 mmol/l UDP-GlcNAc (manufactured by SIGMA), 0.4% Triton CF-54, 10 mmol/l MnCl2, 5 μmol/12-aminobenzamide-labeled sugar chain substrate, the above purified enzyme solution], and then the product was detected by high performance liquid chromatography (HPLC, details will be described below). […]
(§3) The assay solution after completion of the reaction was treated at 100° C. for 5 minutes and then mixed with 50 μl of pure water for HPLC and centrifuged at 10,000×g for 5 minutes to obtain the supernatant. To a tube containing the assay solution, 50 μl of pure water for HPLC was added again, the tube was washed, and suparnatant was obtained by centrifugation at 10,000×g for 5 minutes and was combined with the first supernatant. Next, the supernatant was passed through Ultrafree-MC column (manufactured by Millipore) and a portion thereof (10 μl) was subjected to HPLC. The Ultrafree-MC column was used according to the method described in the manufacture's instructions attached thereto.
(§4) The HPLC was carried out using TSK-gel ODS-80Ts Column (4.6×300 mm; manufactured by TOSOH) as a column and 0.02 mol/l ammonium acetate buffer containing 7% methanol (pH 4.0) as an eluant at an elution temperature of 50° C. and a flow rate of 1 ml/min.
(§5) The product was detected using a fluorescence spectrophotometer FP-920 (manufactured by JASCO Corporation) (excitation wavelength: 330 nm, radiation wavelength: 420 nm).

Assay [2] addresses T2, G6sec2 (Homo sapiens, UniProt Q9BYG0).
T2 construct: made in house; host or cells: Sf21 insect cells infected with pVL1393-F2G6sec2-derived recombinant baculovirus
T2 sequence (Q9BYG0 39-378): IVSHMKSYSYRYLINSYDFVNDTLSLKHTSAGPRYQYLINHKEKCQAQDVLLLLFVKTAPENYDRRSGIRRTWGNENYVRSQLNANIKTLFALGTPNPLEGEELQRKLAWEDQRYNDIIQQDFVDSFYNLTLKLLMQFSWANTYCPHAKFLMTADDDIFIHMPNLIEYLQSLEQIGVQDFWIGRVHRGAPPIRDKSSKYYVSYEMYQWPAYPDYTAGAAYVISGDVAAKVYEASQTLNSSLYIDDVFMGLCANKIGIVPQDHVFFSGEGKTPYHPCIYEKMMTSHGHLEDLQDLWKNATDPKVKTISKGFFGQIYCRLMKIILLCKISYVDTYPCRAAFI
The following applies: for Relative activity (%) Test 1 G6sec2 / Relative activity (%) Test 2 G6sec2: 2-aminobenzamide-labeled oligosaccharides, LNnT defined as 100%; for Relative activity (%) Test 2 G6sec2: enzyme prepared again. The method, then: as §1, §2
Specifically, the reaction was carried out at 37° C. for 16 hours in 20 μl of an assay solution [150 mmol/l sodium cacodylate (pH 7.2), 50 mmol/l UDP-GlcNAc (manufactured by SIGMA), 0.4% Triton CF-54, 10 mmol/l MnCl2, 5 μmol/12-aminobenzamide-labeled sugar chain substrate, the above purified enzyme solution], and then the product was detected by high performance liquid chromatography (HPLC, details will be described below). As the enzyme, an eluate (1.5 μl) prepared from a culture supernatant of Sf21 infected with the recombinant virus derived from pVL1393-F2G6sec1 or an eluate (1.4 μl) prepared from a culture supernatant of Sf21 infected with the recombinant virus derived from pVL1393-F2G6sec2, prepared in Example 8(6), was used.
as §3, §4, §5
Also, a purified enzyme (G6sec2) was again prepared using the method shown in Example 8(6), its substrate specificity was again examined, and the results are also shown in Table 1 (Test 2 in Table 1). The purified enzyme (280 μl) was prepared from 30 ml of a culture supernatant of Sf21 infected with the recombinant virus derived from pVL1393-F2G6sec2, and the assay was carried out using a 4 μl portion thereof. Relative activities when the activity measured using 2-aminobenzamide-labeled LNnT as the substrate is defined as 100% are shown in the table.

Assay [3] has as its target T2, G6sec2. The following applies: second enzyme-adsorbed ANTI-FLAG M1 AFFINITY GEL (printed G6sec1-adsorbed gel) used as enzyme.

With `CC(=O)N[C@H]1[C@H](O[C@H]2[C@@H](O)[C@@H](CO)O[C@@H](O[C@H]3[C@H](O)[C@@H](NC(C)=O)C(O)O[C@@H]3CO)[C@@H]2O)O[C@H](CO)[C@@H](O[C@@H]2O[C@H](CO)[C@H](O)[C@H](O)[C@H]2O)[C@@H]1O` (some centres unmarked) [2LN, Galβ1-4GlcNAcβ1-3Galβ1-4GlcNAc], the “Relative activity (%) Test 1 G6sec1” value in assay [1] came to 81.4%. In assay [2], the “Relative activity (%) Test 1 G6sec2” value is reported as 86.8% and the “Relative activity (%) Test 2 G6sec2” value is listed as 65.3%.
As to `CC(=O)N[C@H]1[C@H](O[C@H]2[C@@H](O)[C@@H](CO)O[C@@H](O[C@H]3[C@H](O)[C@@H](O)C(O)O[C@@H]3CO)[C@@H]2O)O[C@H](CO)[C@@H](O[C@@H]2O[C@H](CO)[C@H](O)[C@H](O)[C@H]2O)[C@@H]1O` (mixture of isomers) [LNnT, lacto-N-neotetraose], the results for the “conversion efficiency of the substrate” value in assay [3] and in assay [1] (G6sec1-adsorbed ANTI-FLAG M1 AFFINITY GEL used as enzyme) were 20.2% and 6.64%, respectively. For the same compound, the “Relative activity (%) Test 1 G6sec1” value in assay [1] is given as 100%. The “conversion efficiency of the substrate into the product” value in assay [1] (G6sec1 eluate 1.5 μl, 2-aminobenzamide-labeled substrate, 37° C., 16 hours (Test 1)) turned out to be 9.85%; in assay [2] (G6sec2 eluate 1.4 μl, 2-aminobenzamide-labeled substrate, 37° C., 16 hours (Test 1)), 11.2%. Besides, the “Relative activity (%) Test 1 G6sec2” value in assay [2] was determined as 100%. The “Relative activity (%) Test 2 G6sec2” value in assay [2] came out at 100%. Also, the “conversion efficiency into the product” value in assay [2] (G6sec2 prepared again, 4 μl, 2-aminobenzamide-labeled substrate (Test 2)) came out at 26.2%.

For the origin of these results see patent US7629150B2, “Transformed cell harboring DNA or RNA encoding sugar chain synthesizing agent having β1,3-N-acetylglucosaminyltransferase activity” (Kyowa Hakko Kirin Co., Ltd., priority 2000, dated 2009).
